Laboratory results reported in US9102648B1, “Bioavailable diacylhydrazine ligands for modulating the expression of exogenous genes via an ecdysone receptor complex” (Intrexon Corporation, priority 2003, dated 2015).

How the values were obtained:
[1] = target: T1, Bombyx mori EcR (VP16 fusion, CVBE switch construct) (Bombyx mori, UniProt P49881); assay: Z3 Assay (HEK-293 cells with CVBE and 6XEcRE LacZ, β-galactosidase reporter); conditions: for Fold Induction, Z3 Assay, 3.3 uM: 3.3 uM ligand; for Fold Induction, Z3 Assay, 3.3 uM / Fold Induction, Z3 Assay, 33 uM: ligand treated / DMSO treated cells; for Fold Induction, Z3 Assay, 3.3 uM / Fold Induction, Z3 Assay, 33 uM / EC50: average of two wells; for Fold Induction, Z3 Assay, 33 uM: 33 uM ligand; for Z3 assay Rel Max FI: maximum fold induction at any concentration relative to that of GS-E ligand; for Z3 assay Rel Max FI / EC50: HEK-293 Z3 cells; for EC50: read-out: Z3 assay EC50, β-galactosidase reporter
T1 sequence (P49881 86-606): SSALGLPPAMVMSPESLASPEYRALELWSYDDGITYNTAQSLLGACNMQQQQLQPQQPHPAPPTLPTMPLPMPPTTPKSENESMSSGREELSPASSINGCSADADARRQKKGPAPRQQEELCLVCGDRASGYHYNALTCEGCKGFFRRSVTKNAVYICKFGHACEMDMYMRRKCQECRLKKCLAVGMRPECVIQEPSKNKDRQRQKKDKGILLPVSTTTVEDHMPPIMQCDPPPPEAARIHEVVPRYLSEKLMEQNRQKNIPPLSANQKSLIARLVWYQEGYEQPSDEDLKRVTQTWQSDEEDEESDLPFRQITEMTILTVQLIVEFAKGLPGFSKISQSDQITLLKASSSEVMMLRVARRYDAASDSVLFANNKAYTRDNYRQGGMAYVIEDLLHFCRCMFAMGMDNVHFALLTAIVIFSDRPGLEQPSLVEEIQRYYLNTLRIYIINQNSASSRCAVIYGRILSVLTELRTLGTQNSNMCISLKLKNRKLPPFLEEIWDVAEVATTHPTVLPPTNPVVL
T1 sequence (P19793 1-462 partner): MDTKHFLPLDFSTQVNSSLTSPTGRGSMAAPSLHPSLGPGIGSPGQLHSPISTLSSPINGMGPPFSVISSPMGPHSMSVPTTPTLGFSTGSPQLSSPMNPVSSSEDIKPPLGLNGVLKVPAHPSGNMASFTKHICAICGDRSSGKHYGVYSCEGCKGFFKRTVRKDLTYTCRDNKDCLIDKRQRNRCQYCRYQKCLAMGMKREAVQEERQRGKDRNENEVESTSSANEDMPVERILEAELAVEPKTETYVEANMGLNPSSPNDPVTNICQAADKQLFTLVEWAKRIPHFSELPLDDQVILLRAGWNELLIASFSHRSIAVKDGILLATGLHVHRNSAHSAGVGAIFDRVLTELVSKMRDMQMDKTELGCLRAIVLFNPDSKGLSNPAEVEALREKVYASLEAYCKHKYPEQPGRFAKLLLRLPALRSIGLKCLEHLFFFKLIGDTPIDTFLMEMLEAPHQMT
Source text: Dr. F. Gage provided a population of stably transformed cells containing CVBE and 6XEcRE as described in Suhr, S. T., Gil, E. B., Senut M. C., Gage, F. H. (1998) Proc. Natl. Acad. Sci. USA 95, 7999-804. Human 293 kidney cells, also referred to as HEK-293 cells, were sequentially infected with retroviral vectors encoding first the switch construct CVBE, and subsequently the reporter construct 6XEcRE Lac Z. The switch construct contained the coding sequence for amino acids 26-546 from Bombyx mori EcR (BE) (Iatrou) inserted in frame and downstream of the VP16 transactivation domain (VBE). A synthetic ATG start codon was placed under the control of cytomegalovirus (CVBE) immediate early promoter and flanked by long terminal repeats (LTR). The reporter construct contained six copies of the ecdysone response element (EcRE) binding site placed upstream of LacZ and flanked on both sides with LTR sequences (6XEcRE).
Dilution cloning was used to isolate individual clones. Clones were selected using 450 ug/mL G418 and 100 ng/mL puromycin. Individual clones were evaluated based on their response in the presence and absence of test ligands.
Human 293 kidney cells stably transformed with CVBE and 6XEcRE LacZ were maintained in Minimum Essential Medium (Mediates, 10-010-CV) containing 10% FBS (Life Technologies, 26140-087), […] G418 (Mediates, 30-234-CR), and […] (Sigma, P-7255), at 37° C. in an atmosphere containing 5% CO2 and were subculture when they reached 75% confluence.
Z3 cells were seeded into 96-well tissue culture plates at a concentration of 2.5×10^3 cells per well and incubated at 37° C. in 5% CO2 for twenty-four hours. Stock solutions of ligands were prepared in DMSO. Ligand stock solutions were diluted 100 fold in media and 50 μL of this diluted ligand solution ([…]) was added to cells. The final concentration of DMSO was maintained at 0.03% in both controls and treatments.
Reporter gene expression was evaluated 48 hours after treatment of cells, β-galactosidase activity was measured using Gal Screen™ bioluminescent reporter gene assay system from Tropix (GSY1000). Fold induction activities were calculated by dividing relative light units (“RLU”) in ligand treated cells with RLU in DMSO treated cells. Luminescence was detected at room temperature using a Dynex MLX microtiter plate luminometer.
Flanking both constructs are long terminal repeats, G418 and puromycin are selectable markers, CMV is the cytomegalovirus promoter, VBE is coding sequence for amino acids 26-546 from Bombyx mori EcR inserted downstream of the VP16 transactivation domain, 6×EcRE is six copies of the ecdysone response element, lacZ encodes for the reporter enzyme β-galactosidase.
(§1) Each assay was conducted in two separate wells, and the two values were averaged. Fold inductions were calculated by dividing relative light units (“RLU”) in ligand treated cells with RLU in DMSO treated cells. EC50s were calculated from dose response data using a three-parameter logistic model.

[2] = target: GAL4 DBD-CfEcR(DEF)/VP16AD-MmRXRE (Choristoneura fumiferana, UniProt O77240); assay: 13B3 Assay (CHO stable cell line, luciferase reporter); conditions: for Fold Induction, 13B3 Assay, 33 uM: 33 uM ligand; for Fold Induction, 13B3 Assay, 33 uM / Fold Induction, 13B3 Assay, 3.3 uM: RLU ligand treated / RLU DMSO treated cells; for Fold Induction, 13B3 Assay, 33 uM / Fold Induction, 13B3 Assay, 3.3 uM / EC50: average of two wells; for Fold Induction, 13B3 Assay, 3.3 uM: 3.3 uM ligand; for 13B3 assay Rel Max FI: maximum fold induction at any concentration relative to that of GS-E ligand, CHO 13B3 cells; for EC50: read-out: 13B3 EC50, CHO 13B3 stable cell line, luciferase reporter, 48 h
Source text: GAL4 DBD-CfEcR(DEF)/VP16AD-MmRXRE:
The wild-type D, E, and F domains from spruce budworm Choristoneura fumiferana EcR (“CfEcR-DEF”; SEQ ID NO: 1) were fused to a GALA DNA binding domain (“Gal4DBD1-147”; SEQ ID NO: 2) and placed under the control of the SV40e promoter of pM vector (PT3119-5, Clontech, Palo Alto, Calif.). The D and E domains from Mus Musculus RXR (“MmRXR-DE”; SEQ ID NO: 11) were fused to the transactivation domain from VP16 (“VP16AD”; SEQ ID NO: 6) and placed under the control of the SV40e promoter of the pVP16 vector (PT3127-5, Clontech, Palo Alto, Calif.).
CHO cells were transiently transfected with transcription cassettes for GAL4 DBD-CJEcR(DEF) and for VP16AD-MmRXRE controlled by SV40e promoters. Stably transfected cells were selected using Hygromycin. Individually isolated CHO cell clones were transiently transfected with a GALA RE-luciferase reporter (pFR-Luc, Stratagene, La Jolla, Calif.). The 13B3 clone was selected using Zeocin.
Cells were trypsinized and diluted to a concentration of 2.5×10^4 cells mL. 100 μL of cell suspension was placed in each well of a 96 well plate and incubated at 37° C. under 5% CO2 for 24 h. Ligand stock solutions were prepared in DMSO and diluted 300 fold for all treatments. Dose response testing consisted of 8 concentrations ranging from 33 μM to 0.01 μM.
Luciferase reporter gene expression was measured 48 h after cell treatment using Bright-Glo™ Luciferase Assay System from Promega (E2650). Luminescence was detected at room temperature using a Dynex MLX microtiter plate luminometer.
as §1

## CCc1c(OC)cccc1C(=O)NN(C(=O)c1cc(OC)ccc1OC)C(C)(C)C [RG-100779]
[1]
  Fold Induction, Z3 Assay, 3.3 uM: 947
  Fold Induction, Z3 Assay, 33 uM: 304
  Z3 assay Rel Max FI: 0.707
  EC50: 178 nM
[2]
  Fold Induction, 13B3 Assay, 33 uM: 2979

## CCc1c(OC)cccc1C(=O)NN(C(=O)c1ccc(F)cc1)C(C)(C)C [RG-100812]
[1]
  Fold Induction, Z3 Assay, 3.3 uM: 1587
  Fold Induction, Z3 Assay, 33 uM: 399
  Z3 assay Rel Max FI: 0.954
  EC50: 912 nM
[2]
  Fold Induction, 13B3 Assay, 33 uM: 202

## CCc1ccc(C(=O)NN(C(=O)c2ccc(F)cc2)C(C)(C)C)c(F)c1 [RG-100901]
[1]
  Fold Induction, Z3 Assay, 3.3 uM: 1527
  Fold Induction, Z3 Assay, 33 uM: 185
  Z3 assay Rel Max FI: 0.918
  EC50: 316 nM
[2]
  Fold Induction, 13B3 Assay, 33 uM: 882

## Cc1cc(C)cc(C(=O)N(NC(=O)c2cccc([N+](=O)[O-])c2C)C(C)(C)C)c1 [RG-100915]
[1]
  Fold Induction, Z3 Assay, 3.3 uM: 532
  Fold Induction, Z3 Assay, 33 uM: 1292
  Z3 assay Rel Max FI: 0.912
  EC50: 1000 nM
[2]
  Fold Induction, 13B3 Assay, 3.3 uM: 133
  Fold Induction, 13B3 Assay, 33 uM: 525
  13B3 assay Rel Max FI: 0.552
  EC50: 4450 nM

## CCc1ccccc1C(=O)N(NC(=O)c1cccc(OC)c1C)C(C)(C)C [RG-101062]
[1]
  Fold Induction, Z3 Assay, 3.3 uM: 1127
  Fold Induction, Z3 Assay, 33 uM: 391
  Z3 assay Rel Max FI: 0.992
  EC50: 2570 nM
[2]
  Fold Induction, 13B3 Assay, 33 uM: 319

## COc1ccc(Cl)cc1C(=O)N(NC(=O)c1cccc(C)c1C)C(C)(C)C [RG-101178]
[1]
  Fold Induction, Z3 Assay, 3.3 uM: 1200
  Fold Induction, Z3 Assay, 33 uM: 431
  Z3 assay Rel Max FI: 0.887
  EC50: 1320 nM
[2]
  Fold Induction, 13B3 Assay, 33 uM: 699

## Cc1c(Cl)cccc1C(=O)NN(C(=O)c1cccc(Cl)c1)C(C)(C)C [RG-101202]
[1]
  Fold Induction, Z3 Assay, 3.3 uM: 195
  Fold Induction, Z3 Assay, 33 uM: 1
  EC50: 1740 nM
[2]
  Fold Induction, 13B3 Assay, 3.3 uM: 5
  Fold Induction, 13B3 Assay, 33 uM: 7
  13B3 assay Rel Max FI: 0.007
  EC50: 369 nM

## Cc1cc(C)cc(C(=O)N(NC(=O)c2ccc3ncsc3c2)C(C)(C)C)c1 [RG-101312]
[1]
  Fold Induction, Z3 Assay, 3.3 uM: 600
  Fold Induction, Z3 Assay, 33 uM: 292
  Z3 assay Rel Max FI: 0.955
  EC50: 5620 nM
[2]
  Fold Induction, 13B3 Assay, 33 uM: 1874
